Assay [1] has as its target human GABAA α2β2γ1 receptor (Homo sapiens (Human), UniProt P47869+Q8N1C3). Kind of assay: Radioligand binding assay, competition for [3H]RO7239181, γ1-containing GABAA subtype α2β2γ1. Conditions: for γ2/γ1 Selectivity Ratio: Ki α1β3γ2 (nM)/Ki α2β2γ1 (nM); for LogSel: Log[Ki α1β3γ2 (nM)/Ki α2β2γ1 (nM)]. The method, then: The affinity of compounds at GABAA γ1 subunit-containing receptors was measured by competition for [^3H]RO7239181 (67.3 Ci/mmol; Roche) binding to membranes from HEK293F cells (ThermoFisher R^79007) expressing human (transiently transfected) receptors of composition α5β2γ1, α2β2γ1, α1β2γ1.
(§1) Harvested pellets from HEK293F cells expressing the different GABAA receptor subtypes were resuspended in Mannitol Buffer pH 7.2-7.4 (Mannitol 0.29M, Triethylamine 10 mM, Acetic acid 10 mM, EDTA 1 mM plus protease inhibitors (20 tablets Complete, Roche Diagnostics Cat. No. 05 056 489 001 per liter)), washed two times and then resuspended at 1:10 to 1:15 dilution in the same buffer. Cell disruption was performed by stirring the suspension in a Parr vessel #4637 at 435 psi for 15 minutes, and then the suspensions were centrifuged at 1000×g for 15 minutes at 4° C. (Beckman Avanti J-HC: rotor JS-4.2). The supernatant (S1) was transferred in a 21 Schott flask and the pellet (P1) was resuspended with Mannitol Buffer up to 175 ml. The resuspended pellet was transferred into a 250 ml Corning centrifugal beaker and centrifuged at 1500×g for 10 minutes at 4° C. (Beckman Avanti J-HC: rotor JS-4.2). The supernatant (S1) was then transferred in the 21 Schott flask and the pellet was discarded. The supernatants (S1) were centrifuged in 500 ml Beckman polypropylene centrifugal beaker at 15 000×g for 30 minutes at 4° C. (Beckman Avanti J-20 XP: rotor JLA-10.500). The pellet (P2) was resuspended with Mannitol Buffer 1:1 and frozen at −80° C. The supernatant (S2) was centrifuged in 100 ml Beckman polypropylene centrifugal tubes at 48000×g for 50 minutes at 4° C. (Beckman Avanti J-20 XP: rotor JA-18). The supernatant (S3) was discarded and the pellet (P3) was resuspended with 1:1 Mannitol Buffer. The P2 and P3 protein concentration was determined with the BIORAD Standard assay method with bovine serum albumin as standard and measured on the NANO-Drop 1000. The membrane suspension was aliquots (500 μl per tube) and stored at −80° C. until required.
(§2) Membrane homogenates were resuspended and polytronised (Polytron PT1200E Kinematica AG) in Potassium Phosphate 10 mM, KCl 100 mM binding buffer at pH 7.4 to a final assay concentration determined with a previous experiment.
(§3) Assays were incubated to equilibrium for 1 hour at 4° C. and then, membranes were filtered onto unifilter (96-well white microplate with bonded GF/C filters preincubated 20-50 minutes in 0.3% Polyethylenimine) with a Filtermate 196 harvester (Packard BioScience) and washed 4 times with cold Potassium Phosphate 10 mM pH 7.4, KCl 100 mM binding buffer. After anhydrousing, filter-retained radioactivity was detected by liquid scintillation counting. Ki values were calculated using Excel-Fit (Microsoft) and are the means of two determinations.

Assay [2] has as its target human GABAA α5β2γ1 receptor (Homo sapiens (Human), UniProt P31644+Q8N1C3). Put plainly: Radioligand binding assay, competition for [3H]RO7239181, γ1-containing GABAA subtype α5β2γ1. The method, then:
The affinity of compounds at GABAA γ1 subunit-containing receptors was measured by competition for [^3H]RO7239181 (67.3 Ci/mmol; Roche) binding to membranes from HEK293F cells (ThermoFisher R^79007) expressing human (transiently transfected) receptors of composition α5β2γ1, α2β2γ1, α1β2γ1. For better protein expression of the α2 subunit-containing receptors, the 28 amino acid long signal peptide (Met1 to Ala28)of the human GABAA α2 subunit was substituted by the 31 amino acid long signal peptide (Met1 to Ser31) of human GABAA α5 subunit.
as §1, §2
as §3, with “Radioligand binding assays were carried out in a volume of 200 μL (96-well plates) which contained 100 μL of cell membranes, [3H]RO7239181 at a concentration of 1.5 nM (α5β2γ1) or 20-30 nM (α1β2γ1, α2β2γ1) and the test compound in the range of [0.3-1000]×10^−9 M. Nonspecific binding was defined by 10×10^−6 (α5β2γ1) and 30×10^−6 M RO7239181 and typically represented less than 5% (α5β2γ1) and less than 20% (α1β2γ1, α2β2γ1) of the total binding. Assays” for “Assays”

In assay [3] the target is human GABAA α1β3γ2 receptor (Homo sapiens (Human), UniProt P14867+P18507). Put plainly: Radioligand binding assay, competition for [3H]Flumazenil, γ2-containing GABAA subtype α1β3γ2. The procedure: The affinity of compounds at GABAA γ2 subunit-containing receptors was measured by competition for [^3H]Flumazenil (81.1 Ci/mmol; Roche) binding to HEK293F cells expressing human (transiently transfected) receptors of composition α1β3γ2.
Harvested pellets from HEK293F cells expressing the different GABAA γ2 receptor subtypes were resuspended in Mannitol Buffer pH 7.2-7.4 and processed as described above for the cells expressing the GABAA γ1 subunit-containing receptors.
Assays were incubated to equilibrium for 1 hour at 4° C. and harvested onto GF/C uni-filters (Packard) by filtration using a Packard harvester and washing with ice-cold wash buffer (50 mM Tris; pH 7.5). After anhydrousing, filter-retained radioactivity was detected by liquid scintillation counting. Ki values were calculated using Excel-Fit (Microsoft) and are the means of two determinations.

A further assay concerns the target h-GABA-A α2β2γ1 (Homo sapiens (Human), UniProt P47869+Q8N1C3). Kind of assay: Two-electrode voltage clamp electrophysiology in Xenopus oocytes expressing GABAA receptors, modulation of GABA EC20 current. The assay is classed as cell-based. The settings on record: for Efficacy (GABA) %: % modulation of GABA EC20 = 100*(Fold increase−1), compound at 30-fold Ki α2β2γ1; for Fold increase h-GABA-A α2β2γ1 oocyte @ 30-fold Ki: Xenopus oocytes, GABA EC20, test compound at approx. 30-fold its Ki α2β2γ1; for potentiation of the GABA-induced current: α2β2γ1 GABAA receptor subtype expressing oocytes, reference PAMs. The method, then:
Xenopus laevis oocytes at maturation stages V-VI were used for the expression of cloned mRNA encoding GABAA receptor subunits. Oocytes ready for RNA micro-injection were bought from Ecocyte, Castrop-Rauxel, Germany and stored in modified Barth's medium (composition in mM: NaCl 88, KCl 1, NaHCO3 2.4, HEPES 10, MgSO4 0.82, CaNO3 0.33, CaCl2 0.33, pH=7.5) at 20° C. until the experiment.
Oocytes were plated in 96-well plates for microinjection using the Roboinject automated instrument (MultiChannelSystems, Reutlingen, Germany). Approximately 50 nL of an aqueous solution containing the RNA transcripts for the subunits of the desired GABAA receptor subtype was injected into each oocyte. […] Oocytes were kept in modified Barth's medium (composition in mM: NaCl 88, KCl 1, NaHCO3 […], HEPES 10, MgSO4 0.82, CaNO3 0.33, CaCl2 0.33, pH=7.5) at 20° C. until the experiment.
Electrophysiological experiments were performed using the Roboocyte instrument (MultiChannelSystems, Reutlingen, Germany) on days 3 to 5 after the micro-injection of mRNA. During the experiment the oocytes were constantly superfused by a solution containing (in mM) NaCl 90, KCl 1, HEPES 5, MgCl2 1, CaCl2 1 (pH 7.4). Oocytes were impaled by two glass microelectrodes (resistance: 0.5-0.8 MΩ) which were filled with a solution containing KCl 1M+K-acetate 1.5 M and voltage-clamped to −80 mV. The recordings were performed at room temperature using the Roboocyte two-electrode voltage clamp system (Multichannelsystem). After an initial equilibration period of 1.5 min GABA was added for 1.5 min at a concentration evoking approximately 20% of a maximal current response (EC20). After another rest interval of 2.5 min GABA was again added evoking a response of similar amplitude and shape. […] Current traces were recorded at a digitization rate of 10 Hz during and shortly before and after the GABA application.
Each compound and concentration was tested on at least 3 oocytes. Different oocytes were used for different compound concentrations.
For the analysis, the digitized current traces of the first and second GABA response were superimposed and, if necessary, rescaled to equal maximal amplitudes. The ratio between the two responses during the time interval of test compound application was calculated point by point. The extremum of the resulting “ratio trace” was taken as the efficacy (“Fold increase”) of the compound expressed as “% modulation of GABA EC20” (100*(Fold increase−1)).
Background: Two-electrode voltage clamp is typically applied to oocytes expressing channels or transporters.

Where [4] appears, read: read-out: Ki h-GABAA α2β2γ1, Table 2, membranes of HEK293F cells, [3H]RO7239181.

Read-outs that look alike come from different tables or passages of the source.

As to `Cc1cn2c(nc1=O)[C@H](C)N=C(c1c(F)cccc1F)c1c-2ccc(Cl)c1Cl` [Example 7, (5S)-8,9-dichloro-7-(2,6-difluorophenyl)-2,5-dimethyl-5H-pyrimido[1,2-a][1,4]benzodiazepin-3-one], in assay [1], the Ki stood at 11.3 nM, the “γ2/γ1 Selectivity Ratio” value is given as 61.2 and the LogSel is listed as 1.79. Also, in assay [1] (setting [4]), the Ki was determined as 11.3 nM. Moreover, affinity in assay [2] was put at a Ki of 1.4 nM. In assay [3], the Ki came out at 695 nM. Moreover, at h-GABA-A α2β2γ1, the “Efficacy (GABA) %” value amounted to 53% and the “Fold increase h-GABA-A α2β2γ1 oocyte @ 30-fold Ki” value is reported as 1.53.

With `C[C@@H]1N=C(c2c(F)cccc2F)c2c(ccc(Cl)c2Br)-n2ccc(=O)nc21` [Example 6, (5S)-8-bromo-9-chloro-7-(2,6-difluorophenyl)-5-methyl-5H-pyrimido[1,2-a][1,4]benzodiazepin-3-one], in assay [1], the affinity corresponds to a Ki of 49.9 nM, the “γ2/γ1 Selectivity Ratio” value worked out at 35.7 and the LogSel is 1.55. In addition, in assay [1] (setting [4]), the Ki was determined as 49.9 nM. In assay [2], this compound registered a Ki of 4.8 nM. Also, the Ki in assay [3] came out at 1780 nM. Also, on h-GABA-A α2β2γ1, the “Efficacy (GABA) %” value was found to be 121% and the “Fold increase h-GABA-A α2β2γ1 oocyte @ 30-fold Ki” value came to 2.21.

Regarding `CN1C(=O)CN=C(c2ccccc2F)c2cc([N+](=O)[O-])ccc21` [Flunitrazepam, reference compound], the “potentiation of the GABA-induced current” value on h-GABA-A α2β2γ1 is recorded as ~60%.

Turning to `CCc1cn2c(nc1=O)[C@H](C)N=C(c1c(F)cccc1F)c1c-2ccc(Cl)c1Cl` [Example 14, (5S)-8,9-dichloro-7-(2,6-difluorophenyl)-2-ethyl-5-methyl-5H-pyrimido[1,2-a][1,4]benzodiazepine-3-one], in assay [1], the Ki is 15.6 nM, the “γ2/γ1 Selectivity Ratio” value is on record as 58.4 and the LogSel amounted to 1.77. Also, in assay [1] (setting [4]), the Ki worked out at 15.6 nM. In assay [2], this compound came in with a Ki of 2.3 nM. In assay [3], this compound displayed a Ki of 909 nM. Besides, on h-GABA-A α2β2γ1, the “Efficacy (GABA) %” value amounted to 66% and the “Fold increase h-GABA-A α2β2γ1 oocyte @ 30-fold Ki” value is 1.66.

As for `Cc1ncc2n1-c1ccc(Cl)cc1C(c1ccccc1F)=NC2` [Midazolam, reference compound], the LogSel in assay [1] (Table 3) is given as −2.2. The “potentiation of the GABA-induced current” value on h-GABA-A α2β2γ1 is reported as ~60%.

As for `O=c1ccn2c(n1)CN=C(c1c(F)cccc1F)c1c-2ccc(Cl)c1Br` [Example 17, 8-bromo-9-chloro-7-(2,6-difluorophenyl)-5H-pyrimido[1,2-a][1,4]benzodiazepin-3-one], in assay [1], the Ki is 13.7 nM, the “γ2/γ1 Selectivity Ratio” value was 36.9 and the LogSel was found to be 1.57. The Ki in assay [1] (setting [4]) turned out to be 13.7 nM. Besides, in assay [2], affinity was put at a Ki of 1 nM. In assay [3], this compound came in with a Ki of 507 nM. For the same compound, on h-GABA-A α2β2γ1, the “Efficacy (GABA) %” value is on record as 79% and the “Fold increase h-GABA-A α2β2γ1 oocyte @ 30-fold Ki” value was determined as 1.79.

Turning to `O=c1nc2n(cc1Br)-c1ccc(Br)c(Cl)c1C(c1c(F)cccc1F)=NC2` [Example 15, 2,9-dibromo-8-chloro-7-(2,6-difluorophenyl)-5H-pyrimido[1,2-a][1,4]benzodiazepin-3-one], the Ki was 8 nM in assay [1], 8 nM in assay [1] (setting [4]), 0.8 nM in assay [2] and 1970 nM in assay [3]. In addition, in assay [1], the “γ2/γ1 Selectivity Ratio” value was 244.8. Besides, the LogSel in assay [1] was determined as 2.39. Also, the “Efficacy (GABA) %” value at h-GABA-A α2β2γ1 came out at 69%. Moreover, the “Fold increase h-GABA-A α2β2γ1 oocyte @ 30-fold Ki” value at h-GABA-A α2β2γ1 is listed as 1.69.

In assay [1], `O=c1ccn2c(n1)CN=C(c1ccccc1F)c1cc(Cl)ccc1-2` [RE-A, 9-chloro-7-(2-fluorophenyl)-5H-pyrimido[1,2-a][1,4]benzodiazepin-3-one, reference compound] yielded a Ki of 123 nM. Also, in assay [1] (Table 3), the “γ2/γ1 Selectivity Ratio” value came out at 0.23 and the LogSel is −0.64. For the same compound, in assay [3], the Ki was determined as 27.8 nM.

As for `Cc1nnc2n1-c1ccc(Cl)cc1C(c1ccccc1Cl)=NC2` [Triazolam, reference compound], the LogSel in assay [1] (Table 3) is −1.5. In addition, the “potentiation of the GABA-induced current” value at h-GABA-A α2β2γ1 is on record as ~60%.

Take `Cc1nnc2n1-c1ccc(Cl)cc1C(c1ccccc1)=NC2` [Alprazolam, reference compound]: the LogSel in assay [1] (Table 3) was −2.3.

As a reminder, the Ki is the equilibrium dissociation constant of an inhibitor or competing ligand from its target.

These data come from patent US20240287082A1, “NEW BENZODIAZEPINE DERIVATIVES AS GABA A GAMMA1 PAM” (Hoffmann-La Roche Inc., priority 2021, published 2024).
